Laboratory results reported in article PMC5082894 (PLoS ONE, 2016).

Legend:
[1] = molecular target: T1, YU2 gp120/CD4 complex binding to mAb 17b (co-receptor binding site) (Human immunodeficiency virus type 1 group M subtype B, UniProt P35961); set-up: species or system HIV-1; conditions: Fig 4F
T1 construct: purchased Immunodiagnostics (Massachusetts, USA)
Description: (§1) For that purpose, CM4 sensorchips were activated with 50 μL of 0.2 M N-ethyl-N’-([…])-carbodiimide (EDC) and 0.05 M N-hydroxy-succimide (NHS) at 5 μL/min. Then soluble CD4 (10 μg/mL in 10 mM acetate buffer, pH 5), streptavidin (200 μg/mL in 10 mM acetate buffer, pH 4.2), mAb 17b (5 μg/mL in 10 mM acetate buffer, pH 5), MN gp120 (50 μg/ml in 5 mM maleate buffer, pH 6) or YU2 gp120 (50μg/mL in 10 mM acetate buffer, pH 4.8) were injected at 5 μL/min over one of the EDC/NHS activated flow cell until levels of 1200 (for sCD4), 700 (for mAb 17b), 3000 (for streptavidin), or 4500 (for gp120s) response units (RU) were achieved. HS (1 mM in phosphate-buffered saline) was biotinylated through its reducing end by reductive amination with 10 mM of biotin-LC-Hydrazine (Pierce) and captured on the streptavidin surface (20 μg/mL in 10 mM Hepes buffer pH 7.4 and 0.3 M NaCl) to a level of 60–80 RU as described. Surfaces were then blocked with 1M ethanolamine (pH 8.5) for 5 minutes. […]
(§2) The specific binding responses in resonance unit (RU) for MN- (A) and YU2- (B) gp120 were recorded as a function of time (s). […] The specific binding responses in resonance unit (RU) for MN- (C, E) and YU2- (D, F) gp120 were recorded as a function of time (s), and after each injection, the surface was regenerated by a short pulse of 10 mM HCl. […]

[2] = molecular target: T2, MN gp120/CD4 complex binding to mAb 17b (co-receptor binding site) (Human immunodeficiency virus type 1 group M subtype B, UniProt P05877); set-up: species or system HIV-1; conditions: Fig 4E
T2 construct: purchased Immunodiagnostics (Massachusetts, USA)
Description: as §1, §2

[3] = molecular target: T3, YU2 gp120-CD4 interaction (Human immunodeficiency virus type 1 group M subtype B, UniProt P35961); assay type: binding, HIV-1; conditions: SPR, immobilized CD4, data not shown
T3 construct: HIV-1 gp120 was injected over the immobilized CD4; purchased Immunodiagnostics (Massachusetts, USA)
Description: as §1
(§3) The specific binding responses in resonance unit (RU) for MN- (A) and YU2- (B) gp120 were recorded as a function of time (s). […] The specific binding responses in resonance unit (RU) for MN- (C, E) and YU2- (D, F) gp120 were recorded as a function of time (s), and after each injection, the surface was regenerated by a short pulse of 10 mM HCl.

MN gp120-CD4 interaction = molecular target: T4, MN gp120-CD4 interaction (Human immunodeficiency virus type 1 group M subtype B, UniProt P05877); assay type: binding, HIV-1; conditions: SPR, immobilized CD4, data not shown
T4 construct: HIV-1 gp120 was injected over the immobilized CD4; purchased Immunodiagnostics (Massachusetts, USA)
Description: as §1, §3

YU2 gp120 (R5-tropic) = molecular target: T5, YU2 gp120 (R5-tropic) (Human immunodeficiency virus type 1 group M subtype B, UniProt P35961); assay type: binding, HIV-1; conditions: SPR, 0 to 25 μM injected
T5 construct: YU2 gp120 (50μg/mL in 10 mM acetate buffer, pH 4.8); purchased Immunodiagnostics (Massachusetts, USA)
Description: (§4) For that purpose, CM4 sensorchips were activated with 50 μL of 0.2 M N-ethyl-N’-([…])-carbodiimide (EDC) and 0.05 M N-hydroxy-succimide (NHS) at 5 μL/min. Then soluble CD4 (10 μg/mL in 10 mM acetate buffer, pH 5), streptavidin (200 μg/mL in 10 mM acetate buffer, pH 4.2), mAb 17b (5 μg/mL in 10 mM acetate buffer, pH 5), MN gp120 (50 μg/ml in 5 mM maleate buffer, pH 6) or YU2 gp120 (50μg/mL in 10 mM acetate buffer, pH 4.8) were injected at 5 μL/min over one of the EDC/NHS activated flow cell until levels of 1200 (for sCD4), 700 (for mAb 17b), 3000 (for streptavidin), or 4500 (for gp120s) response units (RU) were achieved. HS (1 mM in phosphate-buffered saline) was biotinylated through its reducing end by reductive amination with 10 mM of biotin-LC-Hydrazine (Pierce) and captured on the streptavidin surface (20 μg/mL in 10 mM Hepes buffer pH 7.4 and 0.3 M NaCl) to a level of 60–80 RU as described. Surfaces were then blocked with 1M ethanolamine (pH 8.5) for 5 minutes.
(§5) CD4, mAb 17b and gp120 surfaces were regenerated by 1 min injection of 10 mM HCl and the HS surface was regenerated with a 1 min injection of 0.05% SDS followed by a 3 min injection of 2 M NaCl.
(§6) In order to evaluate the potential anti-viral properties of cinnamon, we first underwent a series of biochemical binding experiments using surface plasmon resonance. […]

MN gp120 (X4-tropic) = molecular target: T6, MN gp120 (X4-tropic) (Human immunodeficiency virus type 1 group M subtype B, UniProt P05877); assay type: binding, HIV-1; conditions: SPR, 0 to 25 μM injected
T6 construct: MN gp120 (50 μg/ml in 5 mM maleate buffer, pH 6); purchased Immunodiagnostics (Massachusetts, USA)
Description: as §4, §5, §6

Oc1cc(O)c2c(c1)O[C@@]1(c3ccc(O)c(O)c3)Oc3cc(O)c4c(c3[C@@H]2[C@H]1O)O[C@H](c1ccc(O)c(O)c1)[C@H](O)[C@H]4c1c(O)cc(O)c2c1O[C@H](c1ccc(O)c(O)c1)[C@H](O)C2 [IND02-trimer, cinnamtannin B1]
concentration from which inhibition of YU2 gp120/CD4 binding to mAb 17b was observed [1]: ≥ 50 µM | concentration from which inhibition of MN gp120/CD4 binding to mAb 17b was observed [2]: ≥ 50 µM | inhibition of YU2 envelope binding to CD4 [3]: did not show a significant inhibition | inhibition of MN envelope binding to CD4 (MN gp120-CD4 interaction): did not show a significant inhibition | binding to immobilized YU2 gp120 (YU2 gp120 (R5-tropic)): gave binding signals | binding to immobilized MN gp120 (MN gp120 (X4-tropic)): gave binding signals
